The cell lines below were run with Cc1ccc(Nc2nccc(N(C)c3ccc4c(C)n(C)nc4c3)n2)cc1S(N)(=O)=O [Pazopanib] + CS(=O)(=O)CCNCc1ccc(-c2ccc3ncnc(Nc4ccc(OCc5cccc(F)c5)c(Cl)c4)c3c2)o1 [Lapatinib] (partner 2 µM) (assay: relative viability (nuclei count vs DMSO), 5 days (fraction); higher = more cells survive). Conditions: first compound 0.01 µM.
Method in brief: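 Nuclei were stained with Hoechst during a one-step fixation (final 0.05% Triton X-100, 1% formaldehyde, 1 ug/ml Hoechst) carried out 5 days after dosing, then counted on 4× images. The cells, lung cancer lines in 1536-well plates, had been dosed by pin tool the day after seeding with one drug alone or a fixed anchor-drug dose plus five library-drug doses (not always all listed) in √10 steps. Relative viability is the nuclei count in treated wells divided by that in vehicle wells, and each value is the median of duplicate plates.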

Calu-6 was tested. Which relative viability did it give?
Its relative viability is 1.07.

Which relative viability does the source give for HCC-366 here?
The relative viability was 1.09.

For NCI-H1666, which relative viability is on record?
The relative viability was 0.644.

For NCI-H647, which relative viability is on record?
Its relative viability is 0.87.

Which relative viability does the source give for LK-2 here?
Its relative viability is 0.764.

Which relative viability does the source give for NCI-H2087 here?
The relative viability was 1.09.

With NCI-H1395 as the cell line, how does the relative viability read?
Its relative viability is 0.788.

Which relative viability does the source give for H3255 here?
The relative viability was 0.203.

Which relative viability does the source give for COR-L23 here?
The relative viability was 0.966.

Which relative viability does the source give for COR-L 105 here?
The relative viability was 0.342.

How did the relative viability turn out when IA-LM was run?
Its relative viability is 0.703.

Which relative viability does the source give for LOU-NH91 here?
The relative viability was 0.646.

With NCI-H358 as the cell line, how does the relative viability read?
The relative viability was 0.482.

Which relative viability does the source give for NCI-H3122 here?
Its relative viability is 1.09.

How did the relative viability turn out when HOP-62 was run?
The relative viability was 1.04.

How did the relative viability turn out when HCC-44 was run?
The relative viability was 0.999.

For A549, which relative viability is on record?
The relative viability was 0.967.

LU99A was tested. Which relative viability did it give?
Its relative viability is 0.727.

With HARA as the cell line, how does the relative viability read?
The relative viability was 0.582.

For HCC-78, which relative viability is on record?
The relative viability was 0.361.

NCI-H2009 was tested. Which relative viability did it give?
Its relative viability is 0.961.

Which relative viability does the source give for A-427 here?
The relative viability was 0.992.

NCI-H460 was tested. Which relative viability did it give?
The relative viability was 1.05.

How did the relative viability turn out when NCI-H727 was run?
Its relative viability is 0.79.

Which relative viability does the source give for NCI-H1734 here?
The relative viability was 0.837.

NCI-H2405 was tested. Which relative viability did it give?
The relative viability was 0.922.

SW 1573 was tested. Which relative viability did it give?
The relative viability was 0.996.

201T was tested. Which relative viability did it give?
Its relative viability is 0.971.

NCI-H1915 was tested. Which relative viability did it give?
Its relative viability is 0.898.

Which relative viability does the source give for HCC-827 here?
The relative viability was 0.169.

Which relative viability does the source give for LXF-289 here?
The relative viability was 0.908.

Same assay, conditions: first compound 0.03162 µM

Which relative viability does the source give for Calu-6 here?
Its relative viability is 1.14.

How did the relative viability turn out when HCC-366 was run?
The relative viability was 1.03.

How did the relative viability turn out when NCI-H1666 was run?
Its relative viability is 0.677.

Which relative viability does the source give for NCI-H647 here?
The relative viability was 1.21.

LK-2 was tested. Which relative viability did it give?
The relative viability was 0.804.

Which relative viability does the source give for NCI-H2087 here?
The relative viability was 0.988.

Which relative viability does the source give for NCI-H1395 here?
Its relative viability is 1.27.

H3255 was tested. Which relative viability did it give?
Its relative viability is 0.26.

With COR-L23 as the cell line, how does the relative viability read?
The relative viability was 1.07.

How did the relative viability turn out when COR-L 105 was run?
Its relative viability is 0.414.

Which relative viability does the source give for LOU-NH91 here?
The relative viability was 0.744.

Which relative viability does the source give for NCI-H358 here?
Its relative viability is 0.53.

For NCI-H3122, which relative viability is on record?
The relative viability was 1.04.

HOP-62 was tested. Which relative viability did it give?
The relative viability was 1.01.

HCC-44 was tested. Which relative viability did it give?
The relative viability was 1.01.

With A549 as the cell line, how does the relative viability read?
Its relative viability is 0.977.

For LU99A, which relative viability is on record?
Its relative viability is 0.978.

BEN was tested. Which relative viability did it give?
The relative viability was 0.574.

For HARA, which relative viability is on record?
Its relative viability is 0.746.

How did the relative viability turn out when HCC-78 was run?
The relative viability was 0.658.

With LCLC-97TM1 as the cell line, how does the relative viability read?
Its relative viability is 0.613.

Which relative viability does the source give for NCI-H2009 here?
The relative viability was 0.946.

With A-427 as the cell line, how does the relative viability read?
The relative viability was 1.07.

For NCI-H460, which relative viability is on record?
The relative viability was 1.06.

How did the relative viability turn out when NCI-H727 was run?
The relative viability was 0.988.

For NCI-H1734, which relative viability is on record?
Its relative viability is 0.777.

How did the relative viability turn out when NCI-H520 was run?
The relative viability was 0.96.

With NCI-H2405 as the cell line, how does the relative viability read?
The relative viability was 1.1.

For SW 1573, which relative viability is on record?
The relative viability was 1.1.

NCI-H1793 was tested. Which relative viability did it give?
Its relative viability is 0.705.

201T was tested. Which relative viability did it give?
Its relative viability is 0.998.

For NCI-H1915, which relative viability is on record?
Its relative viability is 1.03.

With HCC-827 as the cell line, how does the relative viability read?
The relative viability was 0.177.

Which relative viability does the source give for LXF-289 here?
The relative viability was 0.935.

Same assay, conditions: first compound 0.1 µM

With Calu-6 as the cell line, how does the relative viability read?
The relative viability was 1.21.

HCC-366 was tested. Which relative viability did it give?
Its relative viability is 1.09.

How did the relative viability turn out when NCI-H1666 was run?
The relative viability was 0.718.

Which relative viability does the source give for NCI-H647 here?
Its relative viability is 1.17.

Which relative viability does the source give for LK-2 here?
Its relative viability is 0.959.

With NCI-H2087 as the cell line, how does the relative viability read?
Its relative viability is 0.99.

For NCI-H1395, which relative viability is on record?
The relative viability was 0.981.

H3255 was tested. Which relative viability did it give?
The relative viability was 0.248.

For COR-L23, which relative viability is on record?
Its relative viability is 1.06.

How did the relative viability turn out when COR-L 105 was run?
The relative viability was 0.386.

With IA-LM as the cell line, how does the relative viability read?
The relative viability was 0.944.

Which relative viability does the source give for LOU-NH91 here?
The relative viability was 0.748.

How did the relative viability turn out when NCI-H358 was run?
Its relative viability is 0.356.

For NCI-H3122, which relative viability is on record?
The relative viability was 1.17.

For HCC-44, which relative viability is on record?
The relative viability was 0.962.

With A549 as the cell line, how does the relative viability read?
Its relative viability is 1.07.

How did the relative viability turn out when LU99A was run?
Its relative viability is 0.992.

Which relative viability does the source give for BEN here?
Its relative viability is 0.721.

Which relative viability does the source give for HARA here?
The relative viability was 0.58.

HCC-78 was tested. Which relative viability did it give?
Its relative viability is 0.458.

Which relative viability does the source give for LCLC-97TM1 here?
The relative viability was 0.974.

How did the relative viability turn out when NCI-H2009 was run?
Its relative viability is 0.796.

Which relative viability does the source give for A-427 here?
Its relative viability is 1.

With NCI-H460 as the cell line, how does the relative viability read?
The relative viability was 1.04.

How did the relative viability turn out when NCI-H727 was run?
The relative viability was 0.801.

NCI-H1734 was tested. Which relative viability did it give?
The relative viability was 1.13.

NCI-H520 was tested. Which relative viability did it give?
The relative viability was 0.766.

NCI-H2405 was tested. Which relative viability did it give?
The relative viability was 1.06.

How did the relative viability turn out when SW 1573 was run?
The relative viability was 1.14.

With NCI-H1793 as the cell line, how does the relative viability read?
The relative viability was 0.525.

With 201T as the cell line, how does the relative viability read?
Its relative viability is 1.04.

NCI-H1915 was tested. Which relative viability did it give?
The relative viability was 1.01.

How did the relative viability turn out when HCC-827 was run?
Its relative viability is 0.122.

For LXF-289, which relative viability is on record?
Its relative viability is 0.902.

Same assay, conditions: first compound 0.3162 µM

For Calu-6, which relative viability is on record?
The relative viability was 0.999.

HCC-366 was tested. Which relative viability did it give?
Its relative viability is 1.15.

For NCI-H1666, which relative viability is on record?
Its relative viability is 0.763.

With NCI-H647 as the cell line, how does the relative viability read?
The relative viability was 1.08.

With LK-2 as the cell line, how does the relative viability read?
Its relative viability is 1.

NCI-H2087 was tested. Which relative viability did it give?
The relative viability was 1.15.

How did the relative viability turn out when NCI-H1395 was run?
The relative viability was 1.05.

With H3255 as the cell line, how does the relative viability read?
The relative viability was 0.285.

For COR-L23, which relative viability is on record?
Its relative viability is 1.2.

For COR-L 105, which relative viability is on record?
The relative viability was 0.341.

With IA-LM as the cell line, how does the relative viability read?
The relative viability was 0.809.

Which relative viability does the source give for LOU-NH91 here?
Its relative viability is 0.759.

For NCI-H358, which relative viability is on record?
Its relative viability is 0.442.

NCI-H3122 was tested. Which relative viability did it give?
The relative viability was 1.01.

How did the relative viability turn out when HOP-62 was run?
The relative viability was 0.99.

Which relative viability does the source give for HCC-44 here?
Its relative viability is 1.01.

For A549, which relative viability is on record?
Its relative viability is 1.1.

How did the relative viability turn out when LU99A was run?
Its relative viability is 1.12.

How did the relative viability turn out when BEN was run?
The relative viability was 0.808.

Which relative viability does the source give for HARA here?
Its relative viability is 0.725.

HCC-78 was tested. Which relative viability did it give?
The relative viability was 0.622.

With LCLC-97TM1 as the cell line, how does the relative viability read?
Its relative viability is 1.52.

With NCI-H2009 as the cell line, how does the relative viability read?
Its relative viability is 0.883.

Which relative viability does the source give for A-427 here?
Its relative viability is 1.06.

With NCI-H460 as the cell line, how does the relative viability read?
Its relative viability is 0.946.

How did the relative viability turn out when NCI-H727 was run?
The relative viability was 0.878.

With NCI-H1734 as the cell line, how does the relative viability read?
The relative viability was 1.18.

How did the relative viability turn out when NCI-H520 was run?
Its relative viability is 0.859.

How did the relative viability turn out when NCI-H2405 was run?
Its relative viability is 1.31.

Which relative viability does the source give for SW 1573 here?
The relative viability was 1.27.

How did the relative viability turn out when NCI-H1793 was run?
The relative viability was 0.755.

With 201T as the cell line, how does the relative viability read?
Its relative viability is 1.04.

NCI-H1915 was tested. Which relative viability did it give?
Its relative viability is 0.976.

How did the relative viability turn out when HCC-827 was run?
Its relative viability is 0.181.

With LXF-289 as the cell line, how does the relative viability read?
Its relative viability is 0.909.

Same assay, conditions: first compound 1 µM

For Calu-6, which relative viability is on record?
The relative viability was 0.96.

Which relative viability does the source give for HCC-366 here?
The relative viability was 1.03.

With NCI-H1666 as the cell line, how does the relative viability read?
Its relative viability is 0.972.

For NCI-H647, which relative viability is on record?
The relative viability was 1.16.

With LK-2 as the cell line, how does the relative viability read?
Its relative viability is 0.952.

How did the relative viability turn out when NCI-H2087 was run?
The relative viability was 1.02.

With NCI-H1395 as the cell line, how does the relative viability read?
The relative viability was 1.1.

With H3255 as the cell line, how does the relative viability read?
Its relative viability is 0.256.

Which relative viability does the source give for COR-L23 here?
Its relative viability is 1.

COR-L 105 was tested. Which relative viability did it give?
The relative viability was 0.401.

IA-LM was tested. Which relative viability did it give?
The relative viability was 0.52.

Which relative viability does the source give for LOU-NH91 here?
The relative viability was 0.872.

How did the relative viability turn out when NCI-H358 was run?
The relative viability was 0.489.

How did the relative viability turn out when NCI-H3122 was run?
The relative viability was 1.08.

How did the relative viability turn out when HOP-62 was run?
Its relative viability is 1.04.

Which relative viability does the source give for HCC-44 here?
The relative viability was 1.03.

How did the relative viability turn out when A549 was run?
Its relative viability is 0.914.

For LU99A, which relative viability is on record?
The relative viability was 1.07.

BEN was tested. Which relative viability did it give?
The relative viability was 0.774.

For HARA, which relative viability is on record?
Its relative viability is 0.695.
